What was measured:
Assay in all cases: binding mode on PAD1, PAD2, PAD3, biochemical, colorimetric, substrate dialysis, late-stage follow-up (AID 651861)
[1] = molecular target: Protein-arginine deiminase type-1 (Homo sapiens) (UniProt Q9ULC6); conditions: recombinant PAD1-3, post-dialysis BAEE citrulline colorimetric; PAD1; at 100 µM; stronger effect = lower value
[2] = molecular target: Protein-arginine deiminase type-2 (Homo sapiens) (UniProt Q9Y2J8); conditions: recombinant PAD1-3, post-dialysis BAEE citrulline colorimetric; PAD2; at 100 µM; stronger effect = lower value
[3] = molecular target: Protein-arginine deiminase type-3 (Homo sapiens) (UniProt Q9ULW8); conditions: recombinant PAD1-3, post-dialysis BAEE citrulline colorimetric; PAD3; at 100 µM; stronger effect = lower value
Protein-arginine deiminase type-3 (Homo sapiens), sequence (Q9ULW8 whole entry, looked up): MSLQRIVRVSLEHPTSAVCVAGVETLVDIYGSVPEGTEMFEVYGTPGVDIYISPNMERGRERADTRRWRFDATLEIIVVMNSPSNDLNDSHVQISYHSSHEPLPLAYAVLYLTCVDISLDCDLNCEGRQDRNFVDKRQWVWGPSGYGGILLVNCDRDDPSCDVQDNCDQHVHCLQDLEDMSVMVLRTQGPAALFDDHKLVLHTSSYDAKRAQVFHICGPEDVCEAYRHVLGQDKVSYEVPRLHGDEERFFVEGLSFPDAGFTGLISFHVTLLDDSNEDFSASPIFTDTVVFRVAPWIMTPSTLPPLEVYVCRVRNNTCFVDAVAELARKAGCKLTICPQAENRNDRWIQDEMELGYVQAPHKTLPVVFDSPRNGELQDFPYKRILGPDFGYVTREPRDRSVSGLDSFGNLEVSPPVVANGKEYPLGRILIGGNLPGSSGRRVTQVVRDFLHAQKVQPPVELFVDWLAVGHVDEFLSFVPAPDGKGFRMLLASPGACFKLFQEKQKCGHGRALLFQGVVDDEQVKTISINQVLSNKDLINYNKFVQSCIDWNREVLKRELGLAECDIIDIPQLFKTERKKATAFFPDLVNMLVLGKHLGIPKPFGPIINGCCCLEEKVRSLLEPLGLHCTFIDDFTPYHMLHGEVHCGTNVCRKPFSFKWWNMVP

Protein-arginine deiminase type-2 (Homo sapiens), sequence (Q9Y2J8 whole entry, looked up): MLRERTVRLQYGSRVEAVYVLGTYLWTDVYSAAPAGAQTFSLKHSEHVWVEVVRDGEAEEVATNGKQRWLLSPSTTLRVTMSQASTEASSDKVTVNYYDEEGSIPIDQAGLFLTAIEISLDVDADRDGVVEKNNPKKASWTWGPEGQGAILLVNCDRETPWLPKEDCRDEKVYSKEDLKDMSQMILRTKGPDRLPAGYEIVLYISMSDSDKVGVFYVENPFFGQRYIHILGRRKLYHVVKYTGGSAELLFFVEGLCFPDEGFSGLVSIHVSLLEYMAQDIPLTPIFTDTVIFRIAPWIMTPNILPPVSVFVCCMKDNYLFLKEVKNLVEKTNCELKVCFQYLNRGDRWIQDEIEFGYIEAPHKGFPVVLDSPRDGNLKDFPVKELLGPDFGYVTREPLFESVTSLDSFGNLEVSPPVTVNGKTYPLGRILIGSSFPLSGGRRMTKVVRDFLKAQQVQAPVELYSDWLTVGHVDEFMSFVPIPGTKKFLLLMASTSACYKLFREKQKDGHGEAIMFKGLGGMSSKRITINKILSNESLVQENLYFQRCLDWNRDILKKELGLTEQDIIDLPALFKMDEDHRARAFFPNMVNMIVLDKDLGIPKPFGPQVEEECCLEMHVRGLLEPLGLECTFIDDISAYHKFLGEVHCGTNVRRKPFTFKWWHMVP
Protein-arginine deiminase type-1 (Homo sapiens), sequence (Q9ULC6 whole entry, looked up): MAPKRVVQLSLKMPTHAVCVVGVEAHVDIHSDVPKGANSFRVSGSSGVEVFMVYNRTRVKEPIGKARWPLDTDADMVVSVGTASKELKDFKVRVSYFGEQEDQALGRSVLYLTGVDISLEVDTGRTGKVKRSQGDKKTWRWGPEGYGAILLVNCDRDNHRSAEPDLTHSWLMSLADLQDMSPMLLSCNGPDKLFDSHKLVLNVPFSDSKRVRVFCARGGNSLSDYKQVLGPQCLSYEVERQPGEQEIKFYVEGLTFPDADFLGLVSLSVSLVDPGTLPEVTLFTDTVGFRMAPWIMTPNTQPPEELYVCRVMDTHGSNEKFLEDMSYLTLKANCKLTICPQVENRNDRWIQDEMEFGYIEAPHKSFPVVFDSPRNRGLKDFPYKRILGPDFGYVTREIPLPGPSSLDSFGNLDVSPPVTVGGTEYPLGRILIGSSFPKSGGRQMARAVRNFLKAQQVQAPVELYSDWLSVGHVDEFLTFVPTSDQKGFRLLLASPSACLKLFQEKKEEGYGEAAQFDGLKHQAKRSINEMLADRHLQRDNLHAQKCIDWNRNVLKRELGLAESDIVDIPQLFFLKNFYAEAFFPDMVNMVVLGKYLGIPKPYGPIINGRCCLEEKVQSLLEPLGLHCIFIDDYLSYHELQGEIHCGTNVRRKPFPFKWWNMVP

- residual activity after dialysis [1]: 10.2%
- residual activity after dialysis [2]: 5.3%
- residual activity after dialysis [3]: 1.2%
SMILES: NC1=CC(=O)c2ccc(-c3cccc(C(=O)O)n3)nc2C1=O

Source: PubChem BioAssay AID651861 (The Scripps Research Institute Molecular Screening Center, 2012)
